Measured values as given in patent US20240279298A1 (BEIJING TUO JIE BIOPHARMACEUTICAL CO. LTD., priority 2021, published 2024).
Converted amounts (≈) assume the structure as drawn. Where a SMILES comes first, the peptide text is derived from it. [ ]: non-standard residue; d: D form. Aib = CC(C)(N)C(=O)O

Columns and labels:
human GLP-1R = target: T1, human GLP-1R (Homo sapiens, UniProt P43220); assay: Agonist activity assay for GLP-1R (cAMP HTRF); type: cell-based
T1 construct: expressed in transfected cells
T1 sequence (P43220 24-463): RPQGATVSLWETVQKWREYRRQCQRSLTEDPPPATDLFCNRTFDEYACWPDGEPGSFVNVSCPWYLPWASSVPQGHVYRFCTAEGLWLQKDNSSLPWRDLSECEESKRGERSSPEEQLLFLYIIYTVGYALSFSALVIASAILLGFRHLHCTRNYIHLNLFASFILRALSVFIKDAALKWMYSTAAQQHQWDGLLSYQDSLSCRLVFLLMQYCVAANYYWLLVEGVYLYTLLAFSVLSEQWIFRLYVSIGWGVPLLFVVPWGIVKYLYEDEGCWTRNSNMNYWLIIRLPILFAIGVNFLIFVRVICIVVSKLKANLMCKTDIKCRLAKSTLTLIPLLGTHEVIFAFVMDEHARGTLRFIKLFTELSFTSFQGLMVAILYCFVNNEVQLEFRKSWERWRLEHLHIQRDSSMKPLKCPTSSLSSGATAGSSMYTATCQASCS
Description: (§1) The activation of GCGR by related compounds will stimulate the formation of cyclic adenosine monophosphate (cAMP) in cells. Thus, the receptor activity can be monitored by cAMP production in proper cells expressing the receptor.
(§2) Agonist activity assay for GCGR: Cryopreserved stable CHO-K1/GCGR/CRE-Luc cells were taken from a liquid nitrogen tank, thawed in a 37° C. water bath, resuspended in DMEM/F12 medium (Sigma Cat #D8437), centrifuged, and seeded into T75 culture flasks. The cells were passaged at least once for subsequent tests. Before testing, the cells were trypsinized, centrifuged, washed once, and resuspended in serum-free DMEM/F12 medium. The cell density was adjusted, and the cells were plated in a 96-well plate at a density of 2,500 cells/5 μL/well. A 1×buffer solution in Cisbio-cAMP-Gs Dynamic kit was prepared, and IBMX was added at a final concentration of 0.5 mM. 5 μL of polypeptide serially diluted by buffer was added into each well, and the plate was shaken gently for mixing and incubated for 30 minutes at 37° C. cAMP-d2 and Anti-cAMP-Eu^3+-Cryptate were 20-fold diluted with cAMP Lysis and detection buffer respectively and mixed well. 5 μL of diluted cAMP-d2 solution and 5 μL of diluted Anti-cAMP-Eu^3+-Cryptate solution were sequentially added into each well. The mixture was mixed well by moderate vibration, and incubated for 1 hour at room temperature away from light.
Agonist activity assay for GLP-1R: The method differed from the method described above for the agonist activity assay for GCGR in that a stable CHO-GLP-1R cell line was used.

[1] = Chemical stability in phosphate buffer (UPLC purity); type: physicochemical
human GIPR = target: T2, human GIPR (Homo sapiens, UniProt P48546); assay: Agonist activity assay for GIPR (cAMP HTRF); type: cell-based
T2 construct: expressed in transfected cells
T2 sequence (P48546 22-466): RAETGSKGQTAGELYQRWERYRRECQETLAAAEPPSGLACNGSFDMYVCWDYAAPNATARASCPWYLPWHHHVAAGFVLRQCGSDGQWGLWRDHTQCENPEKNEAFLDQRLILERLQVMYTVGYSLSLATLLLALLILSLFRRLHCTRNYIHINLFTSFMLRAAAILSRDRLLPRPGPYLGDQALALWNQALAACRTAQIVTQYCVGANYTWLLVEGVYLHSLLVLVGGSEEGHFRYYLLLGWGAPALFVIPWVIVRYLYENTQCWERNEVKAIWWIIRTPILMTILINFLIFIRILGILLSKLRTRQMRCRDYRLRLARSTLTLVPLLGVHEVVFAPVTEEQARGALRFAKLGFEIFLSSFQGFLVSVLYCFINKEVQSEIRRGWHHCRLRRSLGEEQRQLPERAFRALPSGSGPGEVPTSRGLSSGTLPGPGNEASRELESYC
Description: as §1, §2
Agonist activity assay for GIPR: The method differed from the method described above for the agonist activity assay for GCGR in that a stable CHO-K1/GIPR cell line was used, and the cell density was 3,000 cells/5 μL/well.

[2] = test system: insulin-induced hypoglycemia rat model; assay: Efficacy in insulin-induced hypoglycemic rat model; type: in vivo, SD rats; conditions: for Blood glucose 60 min / Blood glucose 75 min / Blood glucose 90 min / Blood glucose 105 min: insulin 0.65 IU/kg at T0
[3] = Pharmacokinetics in rats after subcutaneous injection; type: in vivo, SD rats; conditions: plasma
Description: (1) Animals were grouped according to Table 12, and were given free access to water and food before administration.
• Sampling time: 0 min pre-dose, and 2 min, 4 min, 7 min, 10 min, 20 min, 40 min, 1 h and 2 h post-dose. Blood was collected from rats by jugular catheterization.
• 1) 0.2 mL of whole blood was collected at each time point into a centrifuge tube containing EDTA-K2; • 2) The blood samples were centrifuged at 4000 g at 4° C. for 5 min, and separated to give the plasma; • 3) The plasma samples were cryopreserved at −80° C.
The mixture was vortexed for 5 min and centrifuged at a low temperature for 10 min. 100 μL of the supernatant was taken and added to 100 μL of 0.1% formic acid aqueous solution. The mixture was mixed well, and loaded on the instrument for analysis; • Liquid chromatography and mass spectrometry analysis: LC-30A liquid chromatography system (Shimadzu, Japan) and API 5500 liquid chromatography-triple quadrupole mass spectrometer (Analyst Software data processing system, AB Sciex, USA) were used. The chromatographic column was nanomicro Unisil C18aq (4.6 mm×150 mm, 5 μm) chromatographic column; the column temperature was 40° C.; the mobile phase A was 0.1% formic acid aqueous solution, and the mobile phase B was 0.1% formic acid in acetonitrile; the flow rate was 0.5 mL/min; the injection volume was 20 μL; the gradient is shown in Table 13 below. The mass spectrum was obtained using an electrospray ionization (ESI) source, a positive ion analysis mode and a multi reaction monitoring (MRM) scanning mode.
The plasma concentration of the test compounds was measured by HPLC-MS/MS. The plasma concentration-time curve was plotted, and the pharmacokinetic parameters were calculated by PKSolver.

[4] = Maximum solubility in phosphate buffer pH 7.4; type: physicochemical; conditions: phosphate buffer pH 7.4, room temperature
[5] = 4° C., phosphate buffer pH 7.4, 1 mg/mL
[6] = 25° C., phosphate buffer pH 7.4, 1 mg/mL
[7] = 6 nmol/kg subcutaneous at 45 min
[8] = 12 nmol/kg subcutaneous at 45 min
[9] = 20 nmol/kg subcutaneous at 45 min
[10] = male SD rats, single SC injection, Dasiglucagon 5 mg/kg, 40 5.06 mg/kg
[11] = human, microsomes, 0.25 h, 1 μM

GLP-1R % Activity relative to native GLP-1 (human GLP-1R): 0.192% | Purity Day 7 [1, 5]: 99.40% | Purity Day 14 [1, 5]: 99.87% | Purity Day 21 [1, 5]: 100.27% | Purity Day 28 [1, 5]: 100.59% | Purity Day 7 [1, 6]: 99.70% | Purity Day 14 [1, 6]: 99.54% | Purity Day 21 [1, 6]: 97.63% | Purity Day 28 [1, 6]: 97.90% | Purity Day 0 ([1]; phosphate buffer pH 7.4, 1 mg/mL, day 0 (normalization)): 100.00% | EC50 (human GIPR; CHO-K1/GIPR cell line, cAMP): > 100 nM | GIPR % Activity relative to native GIP (human GIPR; relative to native GIP): <0.0700% | AUClast/D [3, 10]: 176 h·ng/mL per mg/kg | T1/2 [3, 10]: 24.8 min | Tmax ([3]; male, SD, rat, sc): 7.02 min | half-life ([3]; male, SD, rat, sc, male SD rats, single SC injection, Dasiglucagon 5 mg/kg, 40 5.06 mg/kg): 24.6 min | bioavailability ([3]; male, SD, rat, sc, read-out: Bioavailability (F %)): 88.2% | solubility at 5 min [4]: 5190 µg/mL (≈ 1520 µM) | Percentage residues 0 min (human liver microsomes): 100.0% | T½ (human liver microsomes; human, microsomes, 1 μM): 125.37 min | Percentage residues 15 min (human liver microsomes; [11]): 100.5% | Percentage residues 30 min (human liver microsomes; human, microsomes, 0.5 h, 1 μM): 89.85% | Percentage residues 60 min (human liver microsomes; human, microsomes, 1 h, 1 μM): 66.96% | Percentage residues 120 min (human liver microsomes; human, microsomes, 2 h, 1 μM): 41.48% | Percentage residues 0 min (human kidney microsomes): 100.0% | Percentage residues 60 min (human kidney microsomes): 25.16% | T½ (human kidney microsomes; human, microsomes, 1 μM): 38.19 min | Percentage residues 15 min (human kidney microsomes; [11]): 63.34% | Percentage residues 30 min (human kidney microsomes; human, microsomes, 0.5 h, 1 μM): 45.04% | Percentage residues 120 min (human kidney microsomes; human, microsomes, 2 h, 1 μM): 10.61%
Structure (SMILES): CC(C)C[C@H](NC(=O)[C@H](Cc1ccc(O)cc1)NC(=O)[C@H](CCCCN)NC(=O)[C@H](CO)NC(=O)[C@H](Cc1ccc(O)cc1)NC(=O)[C@H](CC(=O)O)NC(=O)[C@H](CO)NC(=O)[C@@H](NC(=O)[C@H](Cc1ccccc1)NC(=O)[C@@H](NC(=O)CNC(=O)[C@H](CCC(N)=O)NC(=O)[C@H](CO)NC(=O)[C@@H](N)Cc1c[nH]cn1)[C@@H](C)O)[C@@H](C)O)C(=O)N[C@@H](CC(=O)O)C(=O)N[C@@H](CC(C)C)C(=O)NC(C)(C)C(=O)N[C@@H](CCCNC(=N)N)C(=O)N[C@@H](C)C(=O)N[C@@H](CCC(N)=O)C(=O)N[C@@H](CCC(=O)O)C(=O)N[C@@H](Cc1ccccc1)C(=O)N[C@H](C(=O)N[C@@H](CCC(N)=O)C(=O)N[C@@H](Cc1c[nH]c2ccccc12)C(=O)N[C@@H](CC(C)C)C(=O)N[C@@H](CCC(=O)O)C(=O)N[C@@H](CO)C(=O)N[C@H](C(=O)O)[C@@H](C)O)C(C)C [Compound 40] (H-HSQGTFTSDYSKYLDL[Aib]RAQEFVQWLEST-OH)
Chemical stability in phosphate buffers (in words) [1]: better chemical stability in phosphate buffers than that of Dasiglucagon | Blood glucose 60 min [2, 7]: 6.65 mmol/L | Blood glucose 75 min [2, 7]: 9.05 mmol/L | Blood glucose 90 min [2, 7]: 7.08 mmol/L | Blood glucose 105 min [2, 7]: 6.99 mmol/L | Blood glucose 60 min [2, 8]: 7.40 mmol/L | Blood glucose 75 min [2, 8]: 9.50 mmol/L | Blood glucose 90 min [2, 8]: 9.13 mmol/L | Blood glucose 105 min [2, 8]: 8.63 mmol/L | Blood glucose 60 min [2, 9]: 6.87 mmol/L | Blood glucose 75 min [2, 9]: 9.68 mmol/L | Blood glucose 90 min [2, 9]: 9.28 mmol/L | Blood glucose 105 min [2, 9]: 9.00 mmol/L | Effect on raising blood glucose level (in words) ([2]; same dose (12 nmol/kg)): significantly better than that of Dasiglucagon and lasts longer
